Structures can show the parent of a compound that is named as a salt.
Columns and labels:
cephalosporinase = target: T1, cephalosporinase (Pseudomonas aeruginosa, UniProt P24735); assay: β-lactamase inhibitory activity, spectrophotometric rate assay with nitrocefin as substrate; format: biochemical, P. aeruginosa 46012
T1 construct: nitrocefin as substrate; purification not described
From the text: As already said, the oxyimino fragment i.e., =N--OR2 in the formula (I) in its `anti` orientation provides excellent synergy with a β-lactam antibiotic against class C β-lactamase (cephalosporinase) producing microorganisms, P. aeruginosa, in particular. Thus this invention includes only those compounds having the formula (I) in which the oxyimino group (=N--OR2) is specifically in the `anti` orientation as shown in (I). Furthermore, the inhibitory activity against the isolated β-lactamase (e.g., cephalosporinase from P. aeruginosa 46012) and the synergy with a β-lactam antibiotic is greatly influenced by the nature of the heterocyclic ring represented by R1 and the nature of the substituent in the oxime fragment represented by R2.
The inhibitory activities of present compounds (β-lactamase inhibitors) against cephalosporinase was measured by spectrophotometric rate assay using […] and using nitrocefin as a substrate (J. Antimicrob. Chemother., vol. 28, pp 775-776, 1991).

β-lactamase = conditions: cited from earlier work
E. cloacae 40054 = assay: MIC of ceftazidime, microbroth dilution; format: cell-based; conditions: Enterobacter cloacae, 40054, 18 h, read-out: MIC of ceftazidime alone
Method: (§1) After incubation in Mueller-Hinton Broth (Difco) at 37° C. for 18 h, the bacterial suspension was diluted and about 10^5 CFU/ml was applied to the drug-containing Mueller-Hinton Broth in each well of 96 well plate. The MICs were recorded after 18 h of incubation at 37° C. on the lowest combinations of drug that inhibited visible growth of bacteria.

E. cloacae MNH-2 = assay: MIC of ceftazidime, microbroth dilution; format: cell-based; conditions: Enterobacter cloacae, MNH2, 18 h, read-out: MIC of ceftazidime alone
Method: as §1

E. cloacae P99 = assay: microbe, parasite or virus in culture; format: cell-based; conditions: Enterobacter cloacae, P99, 18 h, read-out: MIC of ceftazidime alone
Method: as §1

E. aerogenes 41006 = assay: MIC of ceftazidime, microbroth dilution; format: cell-based; conditions: Klebsiella aerogenes, 41006, 18 h, read-out: MIC of ceftazidime alone
Method: as §1, with “[…]. After” for “After”

E. aerogenes S-95 = assay: MIC of ceftazidime, microbroth dilution; format: cell-based; conditions: Klebsiella aerogenes, S95, 18 h, read-out: MIC of ceftazidime alone
Method: as §1, with “[…]. After” for “After”

M. morganii 36014 = assay: MIC of ceftazidime, microbroth dilution; format: cell-based; conditions: Morganella morganii, 36014, 18 h, read-out: MIC of ceftazidime alone
Method: as §1, with “[…]. After” for “After”

M. morganii 36030 = assay: MIC of ceftazidime, microbroth dilution; format: cell-based; conditions: Morganella morganii, 36030, 18 h, read-out: MIC of ceftazidime alone
Method: as §1, with “[…]. After” for “After”

P. aeruginosa 46012 (R) = assay: MIC of ceftazidime, microbroth dilution; format: cell-based; conditions: Pseudomonas aeruginosa, 18 h, read-out: MIC of ceftazidime alone
Method: as §1, with “[…]. After” for “After”

P. aeruginosa 46017 = assay: MIC of ceftazidime, microbroth dilution; format: cell-based; conditions: Pseudomonas aeruginosa, 46017, 18 h, read-out: MIC of ceftazidime alone
Method: as §1, with “[…]. After” for “After”

[1] = system: P. aeruginosa 46220 DR-2-1; assay: MIC of ceftazidime, microbroth dilution; format: cell-based; conditions: Pseudomonas aeruginosa, 46220DR21, 18 h, read-out: MIC of ceftazidime alone
Method: as §1, with “[…]. After” for “After”

P. aeruginosa AU-10 = assay: MIC of ceftazidime, microbroth dilution; format: cell-based; conditions: Pseudomonas aeruginosa, AU10, 18 h, read-out: MIC of ceftazidime alone
Method: as §1, with “[…]. After” for “After”

P. aeruginosa AU-1 = assay: MIC of ceftazidime, microbroth dilution; format: cell-based; conditions: Pseudomonas aeruginosa, AU1, 18 h, read-out: MIC of ceftazidime alone
Method: as §1, with “[…]. After” for “After”

P. aeruginosa AU-5 = assay: MIC of ceftazidime, microbroth dilution; format: cell-based; conditions: Pseudomonas aeruginosa, AU5, 18 h, read-out: MIC of ceftazidime alone
Method: as §1, with “[…]. After” for “After”

P. aeruginosa AU-7 = assay: MIC of ceftazidime, microbroth dilution; format: cell-based; conditions: Pseudomonas aeruginosa, AU7, 18 h, read-out: MIC of ceftazidime alone
Method: as §1, with “[…]. After” for “After”

P. aeruginosa AU-8 = assay: MIC of ceftazidime, microbroth dilution; format: cell-based; conditions: Pseudomonas aeruginosa, AU8, 18 h, read-out: MIC of ceftazidime alone
Method: as §1, with “[…]. After” for “After”

P. aeruginosa CT-122 = assay: MIC of ceftazidime, microbroth dilution; format: cell-based; conditions: Pseudomonas aeruginosa, CT122, 18 h, read-out: MIC of ceftazidime alone
Method: as §1, with “[…]. After” for “After”

P. aeruginosa CT-137 = assay: MIC of ceftazidime, microbroth dilution; format: cell-based; conditions: Pseudomonas aeruginosa, CT137, 18 h, read-out: MIC of ceftazidime alone
Method: as §1, with “[…]. After” for “After”

P. aeruginosa CT-144 = assay: MIC of ceftazidime, microbroth dilution; format: cell-based; conditions: Pseudomonas aeruginosa, CT144, 18 h, read-out: MIC of ceftazidime alone
Method: as §1, with “[…]. After” for “After”

P. aeruginosa L46004 = assay: MIC of ceftazidime, microbroth dilution; format: cell-based; conditions: Pseudomonas aeruginosa, L46004, 18 h, read-out: MIC of ceftazidime alone
Method: as §1, with “[…]. After” for “After”

P. aeruginosa M 1405 = assay: MIC of ceftazidime, microbroth dilution; format: cell-based; conditions: Pseudomonas aeruginosa, M1405, 18 h, read-out: MIC of ceftazidime alone
Method: as §1, with “[…]. After” for “After”

P. aeruginosa M 2297 = assay: MIC of ceftazidime, microbroth dilution; format: cell-based; conditions: Pseudomonas aeruginosa, M2297, 18 h, read-out: MIC of ceftazidime alone
Method: as §1, with “[…]. After” for “After”

[2] = system: P. aeruginosa PAO 303 carb-4; assay: MIC of ceftazidime, microbroth dilution; format: cell-based; conditions: Pseudomonas aeruginosa, PAO303CARB4, 18 h, read-out: MIC of ceftazidime alone
Method: as §1, with “[…]. After” for “After”

[3] = system: P. aeruginosa sp 2439 Wt.; assay: MIC of ceftazidime, microbroth dilution; format: cell-based; conditions: Pseudomonas aeruginosa, SP2439WT., 18 h, read-out: MIC of ceftazidime alone
Method: as §1, with “[…]. After” for “After”

P. fluorescens sp 5953 = assay: MIC of ceftazidime, microbroth dilution; format: cell-based; conditions: Pseudomonas fluorescens, SP5953, 18 h, read-out: MIC of ceftazidime alone
Method: as §1, with “[…]. After” for “After”

P. aeruginosa 46220 DR-2 = assay: MIC of ceftazidime, microbroth dilution; format: cell-based; conditions: Pseudomonas aeruginosa, 46220DR2, alone, 18 h, 37° C.
Method: as §1, with “The MICs of the antibiotics (ceftazidime) alone, the MICs of ceftazidime in combination with reference compounds particularly aztreonam (ref. compd. I) and the MICs of the β-lactamase inhibitors (10 μg/ml) of the present invention in combination with ceftazidime were determined with the same β-lactamase producing bacteria. After” for “After”

T1 sequence (P24735 27-397): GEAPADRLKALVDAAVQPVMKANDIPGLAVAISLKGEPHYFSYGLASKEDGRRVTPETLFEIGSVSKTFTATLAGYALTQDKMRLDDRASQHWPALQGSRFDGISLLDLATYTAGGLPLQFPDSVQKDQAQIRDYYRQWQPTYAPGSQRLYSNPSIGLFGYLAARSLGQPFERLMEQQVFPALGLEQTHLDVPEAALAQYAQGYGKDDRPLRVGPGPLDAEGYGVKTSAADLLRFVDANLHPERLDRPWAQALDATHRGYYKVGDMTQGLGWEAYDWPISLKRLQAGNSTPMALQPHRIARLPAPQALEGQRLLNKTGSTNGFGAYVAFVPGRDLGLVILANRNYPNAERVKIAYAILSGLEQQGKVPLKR

C[C@H]1[C@H](NC(=O)/C(=N/OCC(N)COC(=O)/C(=N\OCc2cc(=O)c(O)cn2O)c2cccs2)c2cccs2)C(=O)N1S(=O)(=O)O (some centres unmarked) [Compound 16]
IC50 (cephalosporinase): 4.5 nM

C=CCC(O/N=C(/C(=O)N[C@@H]1C(=O)N(S(=O)(=O)O)[C@H]1C)c1cccs1)c1cc(=O)c(O)cn1O (some centres unmarked) [Compound 5]
IC50 (cephalosporinase): 50 nM

C[C@H]1[C@H](NC(=O)/C(=N/OC(c2ccc(F)cc2)c2cc(=O)c(O)cn2O)c2cccs2)C(=O)N1S(=O)(=O)O (some centres unmarked) [Compound 6]
IC50 (cephalosporinase): 100 nM

C[C@H]1[C@H](NC(=O)/C(=N/OCc2cc(=O)c(O)cn2O)c2cccs2)C(=O)N1S(=O)(=O)O [Compound 2]
IC50 (cephalosporinase): 40 nM

C[C@H]1[C@H](NC(=O)/C(=N/OCCNC(=O)/C(=N/OCc2cc(=O)c(O)cn2O)c2cccs2)c2cccs2)C(=O)N1S(=O)(=O)O [Compound 10]
IC50 (cephalosporinase): 1 nM

C[C@H]1[C@H](NC(=O)/C(=N/OCc2cc(=O)c(O)cn2O)c2cccs2)C(=O)N1S(=O)(=O)O [Compound 1, (3S)-trans-3-[(E)-2-(2-thienyl)-2-{(1,5-dihydroxy-4-pyridon-2-ylmethoxy)imino}acetamido]-4-methyl-2-oxoazetidine-1-sulfonic acid]
IC50 (cephalosporinase): 60 nM

C[C@H]1[C@H](NC(=O)/C(=N\OCc2cc(=O)c(O)cn2O)c2cccs2)C(=O)N1S(=O)(=O)O [Ref. compd. III]
IC50 (cephalosporinase): 40 nM

C[C@H]1[C@H](NC(=O)/C(=N/OCCSCc2cc(=O)c(O)cn2O)c2cccs2)C(=O)N1S(=O)(=O)O [Compound 7]
IC50 (cephalosporinase): 60 nM

C/C(=N/OCc1cc(=O)c(O)cn1O)C(=O)NCCO/N=C(/C(=O)N[C@@H]1C(=O)N(S(=O)(=O)O)[C@H]1C)c1cccs1 [Compound 11]
IC50 (cephalosporinase): 50 nM

C[C@H]1[C@H](NC(=O)/C(=N/OC(C)(C)C(=O)O)c2csc(N)n2)C(=O)N1S(=O)(=O)O [Ref. compd. II]
IC50 (cephalosporinase): 2000 nM

C[C@H]1[C@H](NC(=O)/C(=N/OCc2cc(=O)c(O)cn2O)c2cccn2C)C(=O)N1S(=O)(=O)O [Compound 15]
IC50 (cephalosporinase): 900 nM

C[C@H]1[C@H](NC(=O)/C(=N\OC(C)(C)C(=O)O)c2csc(N)n2)C(=O)N1S(=O)(=O)O [Ref. compd. I, Aztreonam]
IC50 (cephalosporinase): 130 nM
β-lactamase inhibitory properties (β-lactamase): possesses β-lactamase inhibitory properties

C[C@H]1[C@H](NC(=O)/C(=N/OCc2cc(=O)c(O)cn2O)c2cccs2)C(=O)N1S(=O)(=O)O [Compound 3]
IC50 (cephalosporinase): 10 nM

CC(O/N=C(/C(=O)N[C@@H]1C(=O)N(S(=O)(=O)O)[C@H]1C)c1cccs1)c1cc(=O)c(O)cn1O (some centres unmarked) [Compound 4]
IC50 (cephalosporinase): 60 nM

C[C@H]1[C@H](NC(=O)/C(=N/OCCNC(=O)/C(=N\OCc2cc(=O)c(O)cn2O)c2cccs2)c2cccs2)C(=O)N1S(=O)(=O)O [Compound 9]
IC50 (cephalosporinase): 6 nM

CC(C)(O/N=C(\C(=O)N[C@@H]1C(=O)N2C(C(=O)[O-])=C(C[n+]3ccccc3)CS[C@H]12)c1csc(N)n1)C(=O)O [ceftazidime]
MIC (E. cloacae 40054): > 32 µg/mL
MIC (E. cloacae MNH-2): > 32 µg/mL
MIC (E. cloacae P99): > 32 µg/mL
MIC (E. aerogenes 41006): > 32 µg/mL
MIC (E. aerogenes S-95): > 32 µg/mL
MIC (M. morganii 36014): 32 µg/mL
MIC (M. morganii 36030): > 32 µg/mL
MIC (P. aeruginosa 46012 (R)): > 32 µg/mL
MIC (P. aeruginosa 46017): > 32 µg/mL
MIC [1]: > 32 µg/mL
MIC (P. aeruginosa AU-10): 32 µg/mL
MIC (P. aeruginosa AU-1): > 32 µg/mL
MIC (P. aeruginosa AU-5): > 32 µg/mL
MIC (P. aeruginosa AU-7): > 32 µg/mL
MIC (P. aeruginosa AU-8): > 32 µg/mL
MIC (P. aeruginosa CT-122): 32 µg/mL
MIC (P. aeruginosa CT-137): 16 µg/mL
MIC (P. aeruginosa CT-144): > 32 µg/mL
MIC (P. aeruginosa L46004): > 32 µg/mL
MIC (P. aeruginosa M 1405): > 32 µg/mL
MIC (P. aeruginosa M 2297): > 32 µg/mL
MIC [2]: 32 µg/mL
MIC [3]: > 32 µg/mL
MIC (P. fluorescens sp 5953): > 32 µg/mL
MIC (P. aeruginosa 46220 DR-2): 32 µg/mL

C[C@H]1[C@H](NC(=O)/C(=N/OCc2cc(=O)c(O)c[nH]2)c2cccs2)C(=O)N1S(=O)(=O)O [Compound 14, (3S)-trans-3-[(E)-2-(2-thienyl)-2{(5-hydroxy-4-pyridon-2-ylmethoxy)imino}acetamido]-4-methyl-2-oxoazetidine-1-sulfonic acid, potassium salt]
IC50 (cephalosporinase): 40 nM

C[C@H]1[C@H](NC(=O)/C(=N/OCCNC(=O)/C(=N\OCc2cc(=O)c(O)cn2O)c2csc(N)n2)c2cccs2)C(=O)N1S(=O)(=O)O [Compound 12]
IC50 (cephalosporinase): 6 nM

C[C@H]1[C@H](NC(=O)/C(=N/OCCNC(=O)c2cc(=O)c(O)c[nH]2)c2cccs2)C(=O)N1S(=O)(=O)O [Compound 13]
IC50 (cephalosporinase): 10 nM

Reference: patent publication US5888998A, “2-oxo-1-azetidine sulfonic acid derivatives as potent β-lactamase inhibitors” (Synphar Laboratories, Inc., priority 1997, dated 1999)
